Experimental data: US20240391926A1, “SPIROINDOLINONE COMPOUNDS AS Kv1.3 POTASSIUM SHAKER CHANNEL BLOCKERS” (D.E. Shaw Research, LLC, priority 2021, published 2024)

What was measured:
Kv1.3 potassium channel = target: T1, Kv1.3 potassium channel (Homo sapiens, UniProt P22001); experiment: Kv1.3 potassium channel blocker activity, automated whole-cell patch clamp (Patchliner) in CHO-K1 cells stably expressing Kv1.3; assay type: cell-based; conditions: 30 nM-100 μM
T1 construct: expressed in transfected cells
T1 sequence (P22001 whole entry): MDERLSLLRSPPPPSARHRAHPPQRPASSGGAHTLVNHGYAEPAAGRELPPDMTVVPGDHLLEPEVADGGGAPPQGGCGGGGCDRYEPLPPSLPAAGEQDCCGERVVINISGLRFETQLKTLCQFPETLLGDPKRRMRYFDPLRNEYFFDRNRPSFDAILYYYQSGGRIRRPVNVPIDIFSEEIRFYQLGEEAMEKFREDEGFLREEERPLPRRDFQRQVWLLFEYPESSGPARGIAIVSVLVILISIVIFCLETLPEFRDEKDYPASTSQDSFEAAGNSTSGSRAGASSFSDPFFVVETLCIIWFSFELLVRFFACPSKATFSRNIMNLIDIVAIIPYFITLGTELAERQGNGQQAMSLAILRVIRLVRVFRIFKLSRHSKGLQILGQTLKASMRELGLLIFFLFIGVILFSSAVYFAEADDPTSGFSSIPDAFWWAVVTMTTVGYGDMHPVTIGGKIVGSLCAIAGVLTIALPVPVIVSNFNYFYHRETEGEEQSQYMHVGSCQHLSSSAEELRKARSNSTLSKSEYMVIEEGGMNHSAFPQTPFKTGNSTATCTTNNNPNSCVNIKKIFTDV
Summary of the method: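 Whole-cell automated patch clamp in CHO-K1 cells, pH 7.4 external/7.2 internal; 100 ms steps from −90 to +40 mV at 0.1 Hz, 20-pulse trains. Cumulative 30 nM–100 μM on one cell, ≤10 s per concentration; last-pulse current normalized to control, IC50 from Hill fit.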

hERG channel = target: T2, hERG channel (Homo sapiens, UniProt Q12809); experiment: hERG electrophysiology, automated whole-cell patch clamp (Patchliner) in CHO-K1 cells stably expressing hERG; assay type: cell-based; conditions: 30 nM-100 μM
T2 construct: expressed in transfected cells
T2 sequence (Q12809 whole entry): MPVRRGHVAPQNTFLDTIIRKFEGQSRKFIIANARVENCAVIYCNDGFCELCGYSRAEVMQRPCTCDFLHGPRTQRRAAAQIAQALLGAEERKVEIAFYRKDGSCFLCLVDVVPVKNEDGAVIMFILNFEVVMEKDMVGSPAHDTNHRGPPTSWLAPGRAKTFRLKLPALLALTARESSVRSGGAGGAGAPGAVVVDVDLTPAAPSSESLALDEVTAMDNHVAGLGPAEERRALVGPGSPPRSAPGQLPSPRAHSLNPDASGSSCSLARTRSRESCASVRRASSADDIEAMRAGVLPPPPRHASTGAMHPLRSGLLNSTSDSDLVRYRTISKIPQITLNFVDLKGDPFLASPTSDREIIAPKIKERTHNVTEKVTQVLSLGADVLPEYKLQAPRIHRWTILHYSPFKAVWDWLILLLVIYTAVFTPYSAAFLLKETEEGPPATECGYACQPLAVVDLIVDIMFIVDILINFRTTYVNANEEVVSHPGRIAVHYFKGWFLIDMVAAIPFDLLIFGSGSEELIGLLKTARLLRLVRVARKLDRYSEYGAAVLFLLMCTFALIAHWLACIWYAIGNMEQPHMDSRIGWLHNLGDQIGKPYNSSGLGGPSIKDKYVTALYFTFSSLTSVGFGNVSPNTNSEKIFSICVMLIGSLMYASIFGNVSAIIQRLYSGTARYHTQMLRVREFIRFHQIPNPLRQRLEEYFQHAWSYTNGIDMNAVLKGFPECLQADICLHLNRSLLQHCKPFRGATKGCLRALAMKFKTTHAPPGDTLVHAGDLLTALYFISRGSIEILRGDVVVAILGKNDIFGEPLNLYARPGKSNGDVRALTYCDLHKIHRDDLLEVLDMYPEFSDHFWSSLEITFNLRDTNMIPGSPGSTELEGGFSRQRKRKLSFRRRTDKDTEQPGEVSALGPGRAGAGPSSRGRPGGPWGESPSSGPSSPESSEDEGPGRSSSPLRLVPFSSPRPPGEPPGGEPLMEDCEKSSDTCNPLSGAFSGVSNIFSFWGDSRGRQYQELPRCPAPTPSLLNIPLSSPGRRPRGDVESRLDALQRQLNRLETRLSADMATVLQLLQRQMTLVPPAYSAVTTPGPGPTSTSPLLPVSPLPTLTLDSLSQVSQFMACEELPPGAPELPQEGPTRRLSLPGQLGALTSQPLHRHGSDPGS
Experimental: This assay is used to evaluate the disclosed compounds' inhibition activities against the hERG channel.
CHO-K1 cells stably expressing hERG were grown in Ham's F-12 Medium with glutamine containing 10% heat-inactivated FBS, 1% penicillin/streptomycin, hygromycin (100 μg/ml) and G418 (100 μg/ml). Cells were grown in culture flasks at 37° C. in a 5% CO2-humidified incubator.
The cells were bathed in an extracellular solution containing 140 mM NaCl, 4 mM KCl, 2 mM CaCl2), 1 mM MgCl2, 5 mM Glucose, 10 mM HEPES; pH adjusted to 7.4 with NaOH; 295-305 mOsm. The internal solution contained 50 mM KCl, 10 mM NaCl, 60 mM KF, 20 mM EGTA, 10 mM HEPES; pH adjusted to 7.2 with KOH; 285 mOsm. All compounds were dissolved in DMSO at 30 mM. Compound stock solutions were freshly diluted with external solution to concentrations of 30 nM, 100 nM, 300 nM, 1 μM, 3 μM, 10 μM, 30 μM and 100 μM. The highest content of DMSO (0.3%) was present in 100 μM.
The voltage protocol (see Table B) was designed to simulate voltage changes during a cardiac action potential with a 300 ms depolarization to +20 mV (analogous to the plateau phase of the cardiac action potential), a repolarization for 300 ms to −50 mV (inducing a tail current) and a final step to the holding potential of −80 mV. The pulse frequency was 0.3 Hz. Control (compound-free) and compound pulse trains for each compound concentration applied contained 70 pulses.
Whole-cell current recordings and compound application were enabled by means of an automated patch clamp platform Patchliner (Nanion). EPC 10 patch clamp amplifier (HEKA) along with Patchmaster software (HEKA Elektronik Dr. Schulze GmbH) was used for data acquisition. Data were sampled at 10 kHz without filtering. Increasing compound concentrations were applied consecutively to the same cell without washouts in between.
AUC and PEAK values were obtained with Patchmaster (HEKA Elektronik Dr. Schulze GmbH). To determine IC50 the last single pulse in the pulse train corresponding to a given compound concentration was used. Obtained AUC and PEAK values in the presence of compound were normalized to control values in the absence of compound. Using Origin (OridinLab), IC50 was derived from data fit to Hill equation: Icompound/Icontrol=(100−A)/(1+([compound]/IC50)nH)+A, where IC50 is the concentration at which current inhibition is half-maximal, [compound] is the applied compound concentration, A is the fraction of current that is not blocked and nH is the Hill coefficient.

Row | Structure (SMILES) | IC50 (Kv1.3 potassium channel) | IC50 (hERG channel)
1 | C[C@H]1NCC[C@@H]1C(=O)N1CC[C@]2(C1)C(=O)Nc1cc(Cl)c(Cl)cc12 (relative stereo) [Compound 40, (S)-5,6-dichloro-1′-((2S,3R)-rel-2-methylpyrrolidine-3-carbonyl)spiro[indoline-3,3′-pyrrolidin]-2-one isomer 2] | < 300 nM | > 100000 nM
2 | O=C([C@H]1CC[C@](O)(CO)C1)N1CC[C@]2(C1)C(=O)Nc1cc(Cl)c(Cl)cc12 (relative stereo) [Compound 95, (S)-5,6-dichloro-1′-((1R,3S)-rel-3-hydroxy-3-(hydroxymethyl)cyclopentane-1-carbonyl)spiro[indoline-3,3′-pyrrolidin]-2-one isomer 1] | < 1000 nM | > 100000 nM
3 | O=C([C@H]1CC[C@@](O)(CO)C1)N1CC[C@]2(C1)C(=O)Nc1cc(Cl)c(Cl)cc12 (relative stereo) [Compound 97, (S)-5,6-dichloro-1′-((1R,3R)-rel-3-hydroxy-3-(hydroxymethyl)cyclopentane-1-carbonyl)spiro[indoline-3,3′-pyrrolidin]-2-one isomer 1] | < 1000 nM | > 100000 nM
4 | O=C([C@H]1CNC[C@H]1O)N1CC[C@]2(C1)C(=O)Nc1cc(Cl)c(Cl)cc12 (single isomer, unassigned) [Compound 2] | < 300 nM | > 100000 nM
5 | O=C([C@@H]1CNC[C@H]1O)N1CC[C@]2(C1)C(=O)Nc1cc(Cl)c(Cl)cc12 (single isomer, unassigned) [Compound 3] | < 100 nM | > 100000 nM
6 | O=C(N1CC[C@]2(C1)C(=O)Nc1cc(Cl)c(Cl)cc12)C1(F)CCNC1 (single isomer, unassigned; isomer 1) [Compound 29] | < 300 nM | > 3000 nM
7 | O=C(C1CCN(CCO)C1)N1CC[C@]2(C1)C(=O)Nc1cc(Cl)c(Cl)cc12 (single isomer, unassigned; isomer 1) [Compound 37] | < 300 nM | > 100000 nM
8 | C[C@@H]1NCC[C@H]1C(=O)N1CC[C@]2(C1)C(=O)Nc1cc(Cl)c(Cl)cc12 (single isomer, unassigned; isomer 1) [Compound 39] | < 300 nM | > 100000 nM
9 | O=C([C@H]1CC[C@H](O)C1)N1CC[C@]2(C1)C(=O)Nc1cc(Cl)c(Cl)cc12 (single isomer, unassigned; isomer 1) [Compound 63] | < 1000 nM | > 30000 nM
10 | O=C(C1C[C@@H](O)[C@H](O)C1)N1CC[C@]2(C1)C(=O)Nc1cc(Cl)c(Cl)cc12 (single isomer, unassigned; isomer 1) [Compound 105] | < 300 nM | > 100000 nM
11 | O=C([C@@H]1CCN(CCO)C1)N1CC[C@]2(C1)C(=O)Nc1cc(Cl)c(Cl)cc12 (single isomer, unassigned; isomer 2) [Compound 38] | < 300 nM | > 100000 nM
12 | O=C([C@@H]1CC[C@@H](O)[C@H](O)C1)N1CC[C@]2(C1)C(=O)Nc1cc(Cl)c(Cl)cc12 (single isomer, unassigned; isomer 2) [Compound 104] | < 300 nM | > 100000 nM
13 | NCC(=O)N1CC[C@]2(C1)C(=O)Nc1cc(Cl)c(Cl)cc12 [Compound 5, (S)-5,6-dichloro-1′-glycylspiro[indoline-3,3′-pyrrolidin]-2-one] | < 1000 nM | > 30000 nM
14 | O=C(CO)N1CC[C@]2(C1)C(=O)Nc1cc(Cl)c(Cl)cc12 [Compound 6, (S)-5,6-dichloro-1′-(2-hydroxyacetyl)spiro[indoline-3,3′-pyrrolidin]-2-one] | < 1000 nM | > 100000 nM
15 | O=C(C1CNC1)N1CC[C@]2(C1)C(=O)Nc1cc(Cl)c(Cl)cc12 [Compound 8, (S)-1′-(azetidine-3-carbonyl)-5,6-dichlorospiro[indoline-3,3′-pyrrolidin]-2-one] | < 1000 nM | > 100000 nM
16 | NCCC(=O)N1CC[C@]2(C1)C(=O)Nc1cc(Cl)c(Cl)cc12 [Compound 9, (S)-1′-(3-aminopropanoyl)-5,6-dichlorospiro[indoline-3,3′-pyrrolidin]-2-one] | < 1000 nM | > 100000 nM
17 | C[C@@H](O)C(=O)N1CC[C@]2(C1)C(=O)Nc1cc(Cl)c(Cl)cc12 [Compound 13, (S)-5,6-dichloro-1′-((R)-2-hydroxypropanoyl)spiro[indoline-3,3′-pyrrolidin]-2-one] | < 1000 nM | > 100000 nM

Row | Structure (SMILES) | IC50 (Kv1.3 potassium channel) | IC50 (hERG channel)
18 | O=C1Nc2cc(Cl)c(Cl)cc2[C@]12CCN(S(=O)(=O)CCO)C2 [Compound 138, (3S)-5,6-dichloro-1′-(2-hydroxyethanesulfonyl)-1H-spiro[indole-3,3′-pyrrolidin]-2-one] | < 1000 nM | 
19 | Nc1ccnc(N2CC[C@]3(C2)C(=O)Nc2cc(Cl)c(Cl)cc23)n1 [Compound 139, (S)-1′-(4-aminopyrimidin-2-yl)-5,6-dichlorospiro[indoline-3,3′-pyrrolidin]-2-one] | < 1000 nM | 
20 | Cc1cc(Cl)cc2c1NC(=O)[C@@]21CCN(C(=O)CO)C1 [Compound 140, (S)-5-chloro-1′-(2-hydroxyacetyl)-7-methylspiro[indoline-3,3′-pyrrolidin]-2-one] | < 1000 nM | 
21 | NS(=O)(=O)N1CC[C@]2(C1)C(=O)Nc1cc(Cl)c(Cl)cc12 [Compound 142, (S)-5,6-dichloro-2-oxospiro[indoline-3,3′-pyrrolidine]-1′-sulfonamide] | < 3000 nM | 
22 | CS(=O)(=O)N1CC[C@]2(C1)C(=O)Nc1cc(Cl)c(Cl)cc12 [Compound 143] | < 1000 nM | 
23 | Nc1cnc(N2CC[C@]3(C2)C(=O)Nc2cc(Cl)c(Cl)cc23)cn1 [Compound 144, (3S)-1′-(5-aminopyrazin-2-yl)-5,6-dichloro-1H-spiro[indole-3,3′-pyrrolidin]-2-one] | < 1000 nM | 
24 | O=C1Nc2cc(Cl)c(Cl)cc2[C@]12CCN(c1c[nH]c(=O)cn1)C2 [Compound 145, (S)-5,6-dichloro-1′-(5-oxo-4,5-dihydropyrazin-2-yl)spiro[indoline-3,3′-pyrrolidin]-2-one] | < 1000 nM | 
25 | O=C1Nc2cc(Cl)c(Cl)cc2[C@]12CCN(c1cn[nH]n1)C2 [Compound 146, (S)-5,6-dichloro-1′-(1H-1,2,3-triazol-4-yl)spiro[indoline-3,3′-pyrrolidin]-2-one] | < 3000 nM | 
26 | COCC(=O)N1CC[C@]2(C1)C(=O)Nc1cc(Cl)c(Cl)cc12 [Compound 147, (S)-5,6-dichloro-1′-(2-methoxyacetyl)spiro[indoline-3,3′-pyrrolidin]-2-one] | < 1000 nM | 
27 | Nc1cc(N2CC[C@]3(C2)C(=O)Nc2cc(Cl)c(Cl)cc23)ncn1 [Compound 148, (S)-1′-(6-aminopyrimidin-4-yl)-5,6-dichlorospiro[indoline-3,3′-pyrrolidin]-2-one] | < 3000 nM | 
28 | O=C1Nc2cc(Cl)c(Cl)cc2[C@]12CCN(c1cnccn1)C2 [Compound 149, (S)-5,6-dichloro-1′-(pyrazin-2-yl)spiro[indoline-3,3′-pyrrolidin]-2-one] | < 3000 nM | 
29 | CC(=O)N1CC[C@]2(C1)C(=O)Nc1cc(Cl)c(Cl)cc12 [Compound 152, (S)-1′-acetyl-5,6-dichlorospiro[indoline-3,3′-pyrrolidin]-2-one] | < 1000 nM | 
30 | O=C(CCO)N1CC[C@]2(C1)C(=O)Nc1cc(Cl)c(Cl)cc12 [Compound 156, (S)-5,6-dichloro-1′-(3-hydroxypropanoyl)spiro[indoline-3,3′-pyrrolidin]-2-one] | < 1000 nM | 
31 | O=C([C@@H](O)CO)N1CC[C@]2(C1)C(=O)Nc1cc(Cl)c(Cl)cc12 [Compound 157, (S)-5,6-dichloro-1′-((S)-2,3-dihydroxypropanoyl)spiro[indoline-3,3′-pyrrolidin]-2-one] | < 1000 nM | 
32 | O=C(C1CC1O)N1CC[C@]2(C1)C(=O)Nc1cc(Cl)c(Cl)cc12 (stereo partly drawn) [Compound 158, (3S)-5,6-dichloro-1′-(2-hydroxycyclopropane-1-carbonyl)spiro[indoline-3,3′-pyrrolidin]-2-one] | < 3000 nM | 
33 | O=C([C@H](O)CO)N1CC[C@]2(C1)C(=O)Nc1cc(Cl)c(Cl)cc12 [Compound 159, (S)-5,6-dichloro-1′-((R)-2,3-dihydroxypropanoyl)spiro[indoline-3,3′-pyrrolidin]-2-one] | < 3000 nM | 
